In patent EP3613735A1, “NOVEL SIRT 1 ACTIVATOR AND MEDICINAL USE THEREOF” (Pusan National University Industry - University Cooperation …, priority 2017, dated 2018):

Key:
[1] = test system: skin fibroblasts; assay: β-galactosidase staining of UVB-induced cell aging; type: cell-based; settings: UVB of 12 mJ/cm^2; pretreated at 1 µM for 24 hours
Experimental: β-galactosidase is used to induce cellular aging of fibroblasts, which are the main cells of the epidermal layer of skin, by using UVB, the most important environmental factor in skin aging, as the most common marker for cell aging and β-galactosidase staining was performed to analyze the cell aging protection of Compound 32u. […]

[2] = test system: db/db mice; assay: Neutral fat in the liver (fatty liver) in obese animal model; type: in vivo, mouse; settings: oral 5 mg/kg daily for 4 weeks
Experimental: Since obesity and insulin resistance are representative diseases directly related to the development of non-alcoholic fatty liver, the improvement effect of Compound 32u on fatty liver was analyzed. Compound 32u was orally administered to db/db mice (9 weeks old) at a concentration of 5 mg/kg daily for 4 weeks. First, the accumulation of fat in the liver, the most representative phenotype, was measured. Briefly, about 50 mg of liver was quantified in cold phosphate buffered saline (PBS) or 0.9% sodium chloride (NaCl) and crushed, followed by treating with mixed solvent of chloroform and methanol (MeOH) in a volume ratio of 2:1 and reacted for 2 hours. […] Thereafter, the amount of neutral fat was measured by absorbance using a neutral fat measurement kit (Stanbio laboratory, TX USA). Since obesity and insulin resistance are representative diseases directly related to the development of non-alcoholic fatty liver, the improvement effect of Compound 70c on fatty liver was analyzed. […] First, the accumulation of fat in the liver, the most representative phenotype, was measured. Briefly, about 50 mg of liver was quantified in cold phosphate buffered saline (PBS) or 0.9% sodium chloride (NaCl) and crushed, followed by treating with mixed solvent of chloroform and methanol (MeOH) in a volume ratio of 2:1 and reacted for 2 hours. […]

[3] = test system: yeast (Saccharomyces cerevisiae); assay: Yeast lifespan extension; settings: yeast group treated, compared with the control group

Compound: Cl.O=C(Nc1ccccc1-c1cc2ccc(CN3CCNCC3)cc2o1)c1ccc2ccccc2c1 [Compound 32u, N-(2-(6-(Piperazin-1-ylmethyl)benzofuran-2-yl)phenyl)-2-naphthamide hydrochloride]
- β-galactosidase staining [1]: reduced
- neutral fat in the liver [2]: reduced neutral fat
- lifespan [3]: significantly extended

Compound: O=C(Nc1ccccc1-c1nc2cc(CN3CCN(C4CCCCC4)CC3)ccc2o1)c1ccc2ccccc2c1 [Compound 70c, N-(2-(5-((4-Cyclohexylpiperazin-1-yl)methyl)benzo[d]oxazol-2-yl)phenyl)-2-naphthamide]
- β-galactosidase staining [1]: reduced
- neutral fat in the liver [2]: reduced neutral fat
